The source of these data is article PMC3469657, “De novo GTP Biosynthesis Is Critical for Virulence of the Fungal Pathogen Cryptococcus neoformans” (PLoS Pathogens, 2012).

In general, Ki refers to the equilibrium dissociation constant of an inhibitor or competing ligand from its target. Usually Km stands for the concentration of substrate that gives half-maximal velocity.

The target of series [1] is T1, CnImd1 (IMP dehydrogenase, CnIMPDH, VNI) (Cryptococcus neoformans, UniProt J9VET5).
T1 construct: gene CNAG_00441; recombinant, 544 residues; 395 residues modelled per monomer
T1 sequence (J9VET5 entry or part of it): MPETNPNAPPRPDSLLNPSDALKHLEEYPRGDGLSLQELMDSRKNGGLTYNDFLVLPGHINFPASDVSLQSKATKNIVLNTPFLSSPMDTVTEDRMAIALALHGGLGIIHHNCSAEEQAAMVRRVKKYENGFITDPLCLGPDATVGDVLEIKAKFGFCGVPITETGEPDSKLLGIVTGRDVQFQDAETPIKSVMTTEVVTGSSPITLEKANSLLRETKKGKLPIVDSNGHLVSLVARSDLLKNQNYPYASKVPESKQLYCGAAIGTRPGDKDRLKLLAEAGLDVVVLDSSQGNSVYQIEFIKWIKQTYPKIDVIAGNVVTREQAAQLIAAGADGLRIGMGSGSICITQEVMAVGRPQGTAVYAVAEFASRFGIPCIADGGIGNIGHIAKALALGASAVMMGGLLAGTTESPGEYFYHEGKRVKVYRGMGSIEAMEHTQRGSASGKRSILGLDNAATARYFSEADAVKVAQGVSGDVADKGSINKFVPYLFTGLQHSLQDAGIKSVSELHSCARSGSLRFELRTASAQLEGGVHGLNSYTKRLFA
Briefly: crystal structure with IMP and MPA; steady-state kinetics (tight-binding uncompetitive vs NAD+). It is filed as biochemical.

Series [2] addresses T2, CgImd1 (IMP dehydrogenase, CgIMPDH, VGIV) (Cryptococcus bacillisporus, UniProt E3P6S3).
T2 construct: gene IMD1; recombinant CgImd1 expressed in E. coli
Briefly: NADH production at […] nm, tight-binding inhibition fits. The class given is biochemical.

The subject of series [3] is NC(=O)c1ccc[n+]([C@@H]2O[C@H](COP(=O)([O-])OP(=O)(O)OC[C@H]3O[C@@H](n4cnc5c(N)ncnc54)[C@H](O)[C@@H]3O)[C@@H](O)[C@H]2O)c1. Briefly: purified protein. Particulars: IMP NAD+ site; substrate inhibition attributed to an E-XMP*•NAD+ complex; varied: cofactor.

T2 sequence (E3P6S3 entry or part of it): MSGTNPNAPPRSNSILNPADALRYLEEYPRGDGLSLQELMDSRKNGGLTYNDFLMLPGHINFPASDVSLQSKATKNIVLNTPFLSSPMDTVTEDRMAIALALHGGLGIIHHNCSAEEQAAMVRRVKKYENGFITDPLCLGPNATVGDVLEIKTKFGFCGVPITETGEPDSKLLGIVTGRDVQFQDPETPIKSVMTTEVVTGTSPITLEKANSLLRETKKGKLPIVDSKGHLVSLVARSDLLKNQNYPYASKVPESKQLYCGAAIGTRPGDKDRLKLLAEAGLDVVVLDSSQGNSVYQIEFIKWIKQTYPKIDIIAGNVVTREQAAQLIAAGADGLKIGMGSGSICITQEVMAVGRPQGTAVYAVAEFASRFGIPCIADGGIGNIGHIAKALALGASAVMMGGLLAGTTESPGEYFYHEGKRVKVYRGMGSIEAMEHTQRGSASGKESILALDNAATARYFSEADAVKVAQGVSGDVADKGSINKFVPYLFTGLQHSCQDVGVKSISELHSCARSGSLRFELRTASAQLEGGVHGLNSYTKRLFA

With `COc1c(C)c2c(c(O)c1C/C=C(\C)CCC(=O)O)C(=O)OC2` [MPA, mycophenolic acid], the inhibitory constant (Ki) in series [1] was determined as 240 ± 18 nM; in series [2], 96 ± 5 nM.

As for “CgImd1 (IMP dehydrogenase, CgIMPDH, VGIV) (Cryptococcus bacillisporus)”, the Michaelis-Menten constant (Km) in series [3] came to 532 ± 65 µM.

For the molecule “CnImd1 (IMP dehydrogenase, CnIMPDH, VNI) (Cryptococcus neoformans H99)”, the Michaelis constant (Km) in series [3] came to 634 ± 97 µM.
